Results published in ChEMBL document CHEMBL2440022, “Development of a novel fluorine-18 labeled deuterated fluororasagiline ([(18)F]fluororasagiline-D2) radioligand for PET studies of monoamino oxidase B (MAO-B)” (Bioorg Med Chem, 2013).
Blank lines part the entries; values can stand above or below the compound they belong to.

Legend:
[1] = target: T1, Amine oxidase [flavin-containing] B (Homo sapiens, UniProt P27338); assay: Inhibition of recombinant human MAO-B expressed in insect cells using kynuramine as substrate assessed as formation of 4-hydroxyquinoline measured every 5 mins for 30 mins; format: cell-based
T1 sequence (P27338 whole entry): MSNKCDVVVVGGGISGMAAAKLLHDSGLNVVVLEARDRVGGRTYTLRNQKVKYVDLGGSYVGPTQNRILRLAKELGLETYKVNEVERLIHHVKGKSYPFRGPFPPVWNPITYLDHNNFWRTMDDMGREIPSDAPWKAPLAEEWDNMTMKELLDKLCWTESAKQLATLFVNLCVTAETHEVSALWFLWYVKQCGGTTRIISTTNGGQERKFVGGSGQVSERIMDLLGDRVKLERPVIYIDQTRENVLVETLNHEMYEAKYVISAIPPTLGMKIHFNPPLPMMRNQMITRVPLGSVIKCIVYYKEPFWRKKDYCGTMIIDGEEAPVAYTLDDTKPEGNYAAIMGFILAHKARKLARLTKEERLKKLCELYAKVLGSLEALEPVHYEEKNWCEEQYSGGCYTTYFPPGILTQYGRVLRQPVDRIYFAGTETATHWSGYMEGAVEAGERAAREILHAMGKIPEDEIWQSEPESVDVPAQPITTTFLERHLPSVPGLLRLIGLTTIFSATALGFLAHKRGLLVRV

[2] = target: T2, Amine oxidase [flavin-containing] A (Homo sapiens, UniProt P21397); assay: Inhibition of recombinant human MAO-A expressed in insect cells using kynuramine as substrate assessed as formation of 4-hydroxyquinoline measured every 5 mins for 30 mins
T2 sequence (P21397 whole entry): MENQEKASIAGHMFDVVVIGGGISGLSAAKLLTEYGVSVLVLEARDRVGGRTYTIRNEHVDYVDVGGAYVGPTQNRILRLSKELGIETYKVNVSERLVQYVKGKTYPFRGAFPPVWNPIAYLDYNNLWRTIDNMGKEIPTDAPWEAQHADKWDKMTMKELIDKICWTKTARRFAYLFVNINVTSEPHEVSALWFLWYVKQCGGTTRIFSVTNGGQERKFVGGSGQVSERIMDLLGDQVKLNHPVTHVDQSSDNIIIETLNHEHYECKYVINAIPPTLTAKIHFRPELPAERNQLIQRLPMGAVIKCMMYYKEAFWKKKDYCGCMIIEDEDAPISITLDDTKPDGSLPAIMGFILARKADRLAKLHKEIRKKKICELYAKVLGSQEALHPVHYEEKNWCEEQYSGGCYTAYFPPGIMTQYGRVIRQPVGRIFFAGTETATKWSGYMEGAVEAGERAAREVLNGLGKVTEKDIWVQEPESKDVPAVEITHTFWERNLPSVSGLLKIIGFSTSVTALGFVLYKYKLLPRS

[3] = organism: Homo sapiens; assay: Selectivity ratio of IC50 for recombinant human MAO-B to IC50 for recombinant human MAO-A; conditions: tested as the 2H-labelled form
[4] = Drug uptake in cynomolgus monkey cortex at 168 to 174 MBq, iv after 60 mins by PET analysis in presence of L-deprenyl; format: ADME, organism-based, Macaca fascicularis; conditions: in vivo, 1 h
[5] = tested on: Cynomolgus monkey; assay: Drug metabolism in cynomolgus monkey plasma assessed as radiometabolite M2 retention time at 168 to 174 MBq, iv by RP-HPLC analysis; format: ADME, organism-based, Macaca fascicularis
[6] = Stability in cynomolgus monkey plasma assessed as unchanged parent compound at 168 to 174 MBq, iv after 45 mins by RP-HPLC analysis; format: ADME, organism-based, Macaca fascicularis; conditions: read-out: Stability
[7] = Drug recovery in cynomolgus monkey plasma at 168 to 174 MBq, iv by RP-HPLC analysis in presence of acetonitrile; format: ADME, organism-based, Macaca fascicularis; conditions: read-out: Drug recovery
[8] = tested on: Thalamus; assay: Drug uptake in cynomolgus monkey thalamus at 168 to 174 MBq, iv after 60 mins by PET analysis in presence of L-deprenyl; format: ADME, organism-based, Macaca fascicularis; conditions: in vivo, 1 h
[9] = tested on: Brain; assay: Drug uptake in cynomolgus monkey brain at 168 to 174 MBq, iv after 4 mins by PET analysis; format: ADME, organism-based, Macaca fascicularis; conditions: in vivo
[10] = Drug uptake in cynomolgus monkey striatum at 168 to 174 MBq, iv after 60 mins by PET analysis; format: ADME, organism-based, Macaca fascicularis; conditions: in vivo, 1 h
[11] = Drug uptake in cynomolgus monkey cerebellum at 168 to 174 MBq, iv after 60 mins by PET analysis in presence of L-deprenyl; format: ADME, organism-based, Macaca fascicularis; conditions: in vivo, 1 h
[12] = tested on: Thalamus; assay: Drug uptake in cynomolgus monkey thalamus at 168 to 174 MBq, iv after 60 mins by PET analysis; format: ADME, organism-based, Macaca fascicularis; conditions: in vivo, 1 h
[13] = tested on: Cynomolgus monkey; assay: Drug metabolism in cynomolgus monkey plasma assessed as radiometabolite M1 retention time at 168 to 174 MBq, iv RP-HPLC analysis; format: ADME, organism-based, Macaca fascicularis
[14] = Stability in cynomolgus monkey plasma assessed as unchanged parent compound at 168 to 174 MBq, iv after 15 mins by RP-HPLC analysis; format: ADME, organism-based, Macaca fascicularis; conditions: read-out: Stability
[15] = Drug uptake in cynomolgus monkey striatum at 168 to 174 MBq, iv after 60 mins by PET analysis in presence of L-deprenyl; format: ADME, organism-based, Macaca fascicularis; conditions: in vivo, 1 h
[16] = Drug uptake in cynomolgus monkey cerebellum at 168 to 174 MBq, iv after 60 mins by PET analysis; format: ADME, organism-based, Macaca fascicularis; conditions: in vivo, 1 h
[17] = Chemical stability of the compound in PBS at pH 7.4 after 180 mins; format: physicochemical; conditions: read-out: Stability
[18] = Drug uptake in cynomolgus monkey cortex at 168 to 174 MBq, iv after 60 mins by PET analysis; format: ADME, organism-based, Macaca fascicularis; conditions: in vivo, 1 h
[19] = Stability in cynomolgus monkey plasma assessed as unchanged parent compound at 168 to 174 MBq, iv after 120 mins by RP-HPLC analysis; format: ADME, organism-based, Macaca fascicularis; conditions: read-out: Stability

Structure (SMILES): [2H]C([2H])(C#C)N[C@@H]1c2ccccc2C[C@H]1F
IC50 [1]: 173 nM
IC50 [2]: 9900 nM

Structure (SMILES): C#CCN[C@@H]1c2ccccc2C[C@H]1F
Ratio IC50 [3]: 19

Structure (SMILES): [2H]C([2H])(C#C)N[C@@H]1c2ccccc2C[C@H]1[18F] [[18F]FLUORORASAGILINE-D2]
SUV [4]: 0.66%
Retention_time [5]: 6.7 min
remaining at 0.75 h [6]: 50%
recovery [7]: > 95%
SUV [8]: 0.78%
SUV [9]: 270%
SUV [10]: 1.38%
SUV [11]: 0.54%
SUV [12]: 1.46%
Retention_time [13]: 2.9 min
remaining at 0.25 h [14]: 75%
SUV [15]: 0.77%
SUV [16]: 0.99%
remaining at 3 h [17]: > 97%
SUV [18]: 1.1%
remaining at 2 h [19]: 20%

The next lines start with the values.

IC50 [1]: 27 nM
Structure (SMILES): C#CCN[C@H]1c2ccccc2C[C@@H]1F [FLUORORASAGILINE]

remaining at 0.75 h [6]: 55%
remaining at 2 h [19]: 35%
Structure (SMILES): C#CCN[C@H]1c2ccccc2C[C@@H]1[18F] [[18F]FLUORORASAGILINE]
